According to ChEMBL document CHEMBL2311297 (Bioorg Med Chem Lett, 2013):
Calls of active or inactive are those of the source. The calls are words filed in the database; no cut-off is given here.

Tests used:
[1] = biological target: Myc proto-oncogene protein (Homo sapiens, UniProt P01106); assay: Inhibition of recombinant His6-tagged c-Myc bHLH-ZIP domain (353 to 437 amino acid residues) (unknown origin) assessed as disruption of Myc-Max dimerization at 100 uM by electrophoretic mobility shift assay relative to control
Daudi = assay: Cytotoxicity against human Daudi cells assessed as growth inhibition after 3 to 5 days by MTT assay
HL-60 = assay: Cytotoxicity against human HL60 cells assessed as growth inhibition after 3 to 5 days by MTT assay
Protein max = Protein max (Homo sapiens, UniProt P61244); assay: Inhibition of His6-tagged Max (151 amino acid residues) (unknown origin) assessed as disruption of Max-Max dimerization by electrophoretic mobility shift assay
[2] = Binding affinity to 5'-HEX-tagged double standard 22 bp 5'-hexachlorofluoresceine-CACCCGGTCACGTGGCCTACAC-3' (unknown origin) by PAGE analysis

Sequence of Myc proto-oncogene protein (P01106 whole entry, the tested form may be a part): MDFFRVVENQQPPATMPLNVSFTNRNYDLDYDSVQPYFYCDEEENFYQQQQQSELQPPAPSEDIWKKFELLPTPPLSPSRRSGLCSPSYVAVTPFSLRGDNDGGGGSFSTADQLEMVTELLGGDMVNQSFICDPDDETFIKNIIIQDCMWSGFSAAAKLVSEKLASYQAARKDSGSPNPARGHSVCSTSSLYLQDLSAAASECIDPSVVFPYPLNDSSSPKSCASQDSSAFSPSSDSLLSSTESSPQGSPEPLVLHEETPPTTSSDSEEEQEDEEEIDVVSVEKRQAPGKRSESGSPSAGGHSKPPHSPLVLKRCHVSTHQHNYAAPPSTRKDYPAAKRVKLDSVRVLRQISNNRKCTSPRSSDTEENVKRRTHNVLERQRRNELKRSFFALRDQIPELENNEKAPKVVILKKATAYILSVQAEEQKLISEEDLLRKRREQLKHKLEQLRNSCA
Sequence of Protein max (P61244 whole entry): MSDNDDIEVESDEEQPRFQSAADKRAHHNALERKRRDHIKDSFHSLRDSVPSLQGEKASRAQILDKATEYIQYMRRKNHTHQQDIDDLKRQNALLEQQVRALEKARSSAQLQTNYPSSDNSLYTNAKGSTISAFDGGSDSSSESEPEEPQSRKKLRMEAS

Structure (SMILES)	inhibition [1]	other results
O=[N+]([O-])c1ccc(NCc2ccccc2)c2nonc12	0%	
O=[N+]([O-])c1ccc(Nc2ccccc2-c2ccccc2)c2nonc12	38%	IC50 (Daudi): 10 µM; IC50 (HL-60): 30 µM
O=C(Nc1ccc(Nc2ccccc2-c2ccccc2)c2nonc12)C(F)(F)F	25%	
CC(=O)Nc1ccc(Nc2ccccc2-c2ccccc2)c2nonc12	2%	
O=C(O)c1ccc(Nc2ccc([N+](=O)[O-])c3nonc23)cc1	93%	IC50 (Daudi): 56 µM; IC50 (Protein max): > 100 µM; Activity [2]: inactive; IC50 (HL-60): 184 µM
O=[N+]([O-])c1ccc(Nc2ccc(-c3ccccc3)cc2)c2nonc12	28%	
Cc1ccccc1Nc1ccc([N+](=O)[O-])c2nonc12	11%	
O=[N+]([O-])c1ccc(Nc2cccc(-c3ccccc3)c2)c2nonc12	20%	
Cc1ccc(Nc2ccc([N+](=O)[O-])c3nonc23)cc1	0%	
O=[N+]([O-])c1ccc(Nc2ccccc2-c2ccccc2)cc1	0%	
O=[N+]([O-])c1ccc(Nc2ccccc2Br)c2nonc12	39%	
COC(=O)Nc1ccc(Nc2ccccc2-c2ccccc2)c2nonc12	0%	
O=[N+]([O-])c1ccc(Nc2ccccc2)c2nonc12	2%	
O=C(O)c1cccc(Nc2ccc([N+](=O)[O-])c3nonc23)c1	0%	
O=[N+]([O-])c1ccc(NC2CCCCC2)c2nonc12	11%	
O=[N+]([O-])c1ccc(Oc2ccccc2-c2ccccc2)c2nonc12	36%	
COc1ccccc1Nc1ccc([N+](=O)[O-])c2nonc12	0%	
O=C(O)c1ccccc1Nc1ccc([N+](=O)[O-])c2nonc12	8%	
O=[N+]([O-])c1ccc(Nc2ccccc2O)c2nonc12	13%	
O=[N+]([O-])c1ccc(N2CCCCC2)c2nonc12	10%	
O=C(O)CCC(=O)Nc1ccc(Nc2ccccc2-c2ccccc2)c2nonc12	17%	
O=C(O)COCC(=O)Nc1ccc(Nc2ccccc2-c2ccccc2)c2nonc12	33%	
